According to patent US20110251128A1, “THYMOSIN Beta4 PEPTIDES PROMOTE TISSUE REGENERATION” (The Board of Regents of the University of Texas System, priority 2010, published 2011):
Entries after “also recorded” stand apart in the source; their conditions may differ. Like-named read-outs stand apart in the source and are kept apart here. Residues, ends and D or L forms follow the SMILES beside them. No end group written: not given here.

Tests used:
[1] = system: C57BL/6J male mice after coronary ligation; experiment: Myocardial infarction by LAD coronary ligation in adult mice: echocardiography, scar volume, myocyte size; assay type: in vivo, mouse; conditions: for side effects: mouse model; for post-ischemic cardiac function, in words: adult mice after coronary ligation
Description: (§1) Animals and Surgical procedures. Mice: Myocardial infarctions were produced in seventy C57BL/6J male mice at 16 weeks of age (25-30 g) by ligation of the left anterior descending (LAD) coronary artery as described (Garner et al., 2003). All animal protocols were reviewed and approved by the University of Texas Southwestern Medical School Institutional Animal Care Advisory Committee and were in compliance with the rules governing animal use as published by the NIH. Mice were sedated in an isoflurane chamber (5%) for 60 seconds until self-designed coaxial mask could be safely applied. The mask supplied continuous isoflurane (2.0%) and oxygen (98.0%) under positive pressure from a Harvard small animal respirator throughout the procedures. Immediately after ligation mice were injected with 200 ng of peptide in […] or […] PBS in collagen intracardially in the infarction border, and with […] PBS intraperitoneally as described (Bock-Marquette et al., 2004). Intraperitoneal injections were repeated every three days after ligation. Effective doses of the peptides were calculated based on optimal in vitro cell migration effect and on biodistribution calculations of full length TB4 (Mora et al., 1997). The inventors administered buprenorphine (0.05 mg/kg) for post-operative pain control. Hearts were removed 1, 14 and 21 days after ligation and processed for further investigations.
Analysis of cardiac function by echocardiography: Echocardiograms to assess systolic function were performed using M-mode and 2-dimensional measurements as described previously (Garner et al., 2003). The measurements represented the average of six selected cardiac cycles from at least two separate scans performed in random-blind fashion with papillary muscles used as a point of reference for consistency in level of scan. End diastole was defined as the maximal left ventricle (LV) diastolic dimension and end systole was defined as the peak of posterior wall motion. Single outliers in each group were omitted for statistical analysis. Fractional shortening (FS), a surrogate of systolic function, was calculated from LV dimensions as follows: FS=[(EDD−ESD)/EDD]×100%. Ejection fraction (EF) was calculated as follows: EF=[(edd^3−esd^3)/edd^3]×100%. EDD, end diastolic dimension; ESD, end systolic dimension.
Calculation of scar volume and myocyte size: Scar volume was calculated after Masson's trichrome staining in six sections through the heart of each mouse using Openlab 3.03 software (Improvision) similar to previously described (Bock-Marquette et al., 2004). Percent area of collagen deposition was measured on each section in blinded fashion and averaged for each mouse.

adult infarcted pigs = experiment: Ischemia reperfusion (acute myocardial infarction) in pigs with retroinfusion of peptides; assay type: in vivo, pig; conditions: pig model
Method: Pigs: German pigs were purchased from the animal research department of the Ludwig-Maximilians-University (Oberschleissheim, Germany). Animal care and all experimental procedures were performed in accordance to the German and NIH animal legislation guidelines and were approved by the Bavarian Animal Care and Use Committee (AZ 55.2-1-54-2531-26/09). All animal experiments were conducted at the Walter Brendel Centre of Experimental Medicine, University of Munich.
Ischemia reperfusion experiments: Pigs (n=5/experimental group) were anesthetized and instrumented as described previously (Hinkel et al., 2008). Briefly, a balloon was placed in the left anterior descending artery (LAD) distal to the bifurcation of the first diagonal branch and inflated for 60 min. Correct localization of the coronary occlusion and patency of the first diagonal branch were ensured by injection fluoroscopy. Regional application of TB4 peptides or saline solution was performed via selective pressure regulated retroinfusion for 10 min into the anterior interventricular vein (AIV) draining the LAD-perfused myocardium (Kupatt et al., 2005).
Global myocardial function: At day 0 before ischemia induction and after 24 h of reperfusion myocardial function was obtained via Millar pressure tip catheter. Therefore the Millar pressure tip catheter was placed in the left ventricle and left ventricular pressure was recorded for off-line analysis.
Regional myocardial function: 24 hours after induction of ischemia, sternotomy was performed and ultrasonic crystals were placed subendocardial into the area at risk, the infracted area as well as into the Cx perfusion area in a standardized manner. Subendocardial segment shortening (SES) was assessed under resting heart rate as well as at 120 and 150 beats/min atrial pacing (for 1 min/each).
Infarct size and local inflammation: For assessment of infarct size methylene blue was injected in the left ventricle for negative staining of the AAR and tetrazolium red was applied into the LAD for viability staining in the infracted area. Thereafter, left ventricle was cut into slices (5 mm thick), and subjected to digital photography. Planimetry of different slices was conducted via ImageJ for assessment of infarct size in % of AAR. Tissue samples from infarct, area at risk and non-ischemic control were harvested for leukocyte recruitment. Myeloperoxidase assays were performed as previously described (Kupatt et al., 2005).

[2] = system: embryonic cardiac endothelial cells; experiment: In vitro embryonic cardiac cell migration assay on collagen gel (outflow tract explants); assay type: cell-based, mouse; parameters: unit not given here; conditions: 300 ng peptide or 100 ng TB4 in medium; E11.5 outflow tract explants; results normalized to PBS control (TB4 = 100.00)
Method: (§2) In vitro embryonic cardiac cell migration assay. The outflow tract of the heart was dissected from E11.5 wild-type mouse embryos and placed on rat-tail collagen matrix (Roche) endothelial layer facing down as described (Bock-Marquette et al., 2004; Runyan and Markwald, 1983). After 10 h of attachment, three independent explants were incubated with 300 ng of peptide #1-17, 100 ng of TB4, or 3 μl PBS in […] OPTIMEM medium (Invitrogen/Gibco) respectively. Medium and protein were changed every two days. To monitor migration distance photos were taken daily using Nikon DXM1200F microscope at 4× magnification. Cell migration distance was quantified by ImageJ software (http at rsb.info.nih.gov/ij/) in three separate explants and three measurements for each treatment respectively. Beating frequency of myocardial cells was counted three times at 7-15 days of treatment. Calculations were normalized to PBS and TB4 treated positive and negative controls. After 15 days at 37° C. in 5% CO2, explants were fixed in 4% paraformaldehyde in PBS for 10 min at room temperature. Explants were stored at 4° C. in PBS for further immunocytochemical investigations.

myocardial cells = experiment: Beating frequency of myocardial cells in embryonic cardiac explants on collagen gel; assay type: cell-based, mouse; conditions: for frequency of myocardial beating: 300 ng peptide or 100 ng TB4, normalized to PBS and TB4 controls (TB4 = 100.00); for myocyte beating, effect in words: compared with full-length TB4 or other constructs
Method: as §2

mature coronary vessels = experiment: Immunohistochemistry, smooth muscle α-actin positive vessels at infarction border zone; assay type: in vivo, mouse; conditions: two weeks after treatment, compared to PBS (FIG. 10)
Description: as §1
Immunohistochemistry. Adult mouse cardiac tissue was fixed in 4% paraformaldehyde and sections were analyzed by immunohistochemistry. Hearts were sectioned at eight levels from the base to the apex. Serial sections were immunostained with primary antibodies against Pecam-1 and Wt-1 (1:50) (Santa Cruz), Smooth muscle a-actin (1:220) (Sigma), Sarcomeric a-actinin (1:200) (Sigma), Connexin43 (1:200) (Invitrogen), pS368-Connexin43 (1:200) (Cell Signaling Technology) as recommended by the manufacturer. Terminal deoxynucleotidyl transferase dUTP nick end labeling (TUNEL) assay was performed using In Situ Cell Detection kit (Roche). Number of sm a-actin positive capillaries and Wt-1 positive cells were counted at the infarction border zone in high power photographs at all levels of the sections in three peptide, TB4 and PBS treated hearts respectively.

[3] = system: Wt-1 positive cardiac progenitors; experiment: Immunohistochemistry, Wt-1 positive progenitor cells at infarction border; assay type: in vivo, mouse; conditions: infarction border, two weeks after injections (FIG. 11)
Description: Animals and Surgical procedures. Mice: Myocardial infarctions were produced in seventy C57BL/6J male mice at 16 weeks of age (25-30 g) by ligation of the left anterior descending (LAD) coronary artery as described (Garner et al., 2003). All animal protocols were reviewed and approved by the University of Texas Southwestern Medical School Institutional Animal Care Advisory Committee and were in compliance with the rules governing animal use as published by the NIH. Mice were sedated in an isoflurane chamber (5%) for 60 seconds until self-designed coaxial mask could be safely applied. The mask supplied continuous isoflurane (2.0%) and oxygen (98.0%) under positive pressure from a Harvard small animal respirator throughout the procedures. […] Effective doses of the peptides were calculated based on optimal in vitro cell migration effect and on biodistribution calculations of full length TB4 (Mora et al., 1997). […]
Immunohistochemistry. Adult mouse cardiac tissue was fixed in 4% paraformaldehyde and sections were analyzed by immunohistochemistry. […] Number of sm a-actin positive capillaries and Wt-1 positive cells were counted at the infarction border zone in high power photographs at all levels of the sections in three peptide, TB4 and PBS treated hearts respectively.

[4] = Yang et al., 2004, cited from earlier work

Compound	endothelial cell migration distance [2]	frequency of myocardial beating (myocardial cells)	myocyte beating, effect in words (myocardial cells)	also measured
LKKTETQEKNPLPSKETIEQEKQAGES [#14]				side effects [1]: did not observe any major side effects; side effects (adult infarcted pigs): did not observe any major side effects
Ac-SDKPDMox [#3]	70.7	17.21+/−1.00 beats/75 sec		post-ischemic cardiac function, in words [1]: does not alter cardiac function; post-ischemic cardiac function, in words ([1]; listed as Ac-SDKPDMox): failed to aid cardiac function; number of mature coronary vessels (mature coronary vessels): fails to alter the number of mature coronary vessels; number of mature coronary vessels (mature coronary vessels; listed as Ac-SDKPDMox): did not initiate vessel growth; Wt-1 positive progenitor cells [3]: fails to increase Wt-1 positive progenitor cells
C[C@H](N)C(=O)NCC(=O)N[C@@H](CCC(=O)O)C(=O)N[C@@H](CO)C(=O)O [#17, AGES] (H-AGES-OH)				side effects [1]: did not observe any major side effects; side effects (adult infarcted pigs): did not observe any major side effects
LKKTET [#8]	13	87.02+/−16.17 beats/75 sec	resembled myocyte fibrillation; also recorded: increases beating frequency	
#2: acetylated N-terminal variable domain with addition of Met6 (Ac-SDKPDM-OH; UniProt P62328 2-7, looked up, fragment)		10.65+/−1.15 beats/75 sec	inhibit myocyte beating in vitro	
#4: de-acetylated form of the N-terminal variable domain (of #1) (SDKP; Thymosin beta-4; UniProt P62328 2-5, looked up, fragment)	154	86.88+/−1.15 beats/75 sec		
#5: de-acetylated form of the N-terminal variable domain with Met6 (of #2) (SDKPDM; Thymosin beta-4; UniProt P62328 2-7, looked up, fragment)	139	66.39+/−3.46 beats/75 sec		
Ac-SDKP (Ac-SDKP-OH; UniProt P62328 2-5, looked up, fragment) [#1, acetylated N-terminal variable domain of TB4]	116	45.08+/−2.31 beats/75 sec	inhibit myocyte beating in vitro	fibrosis, inflammation and coronary vessel growth / angiogenesis [4]: highly angiogenic; post-ischemic cardiac (global) function [4]: did not affect post-ischemic cardiac function; also recorded: did not aid global function; fibrosis, inflammation and coronary vessel growth / angiogenesis ([4]; listed as Ac-SDKP): positive influence; post-ischemic cardiac (global) function ([4]; listed as Ac-SDKP): does not aid post-ischemic cardiac function
